Assay results as given in patent publication US12662465B2, “EGFR inhibitors” (Blueprint Medicines Corporation, priority 2021, dated 2026).

Columns and labels:
[1] = biological target: T1, EGFR L858R (Homo sapiens, UniProt P00533, L858R); experiment: Biochemical EGFR inhibition assay (Caliper mobility shift), EGFR L858R; settings: read-out: Enz EGFR_L858R IC50
T1 construct: purchased SignalChem E10-122BG

[2] = biological target: intracellular phosphorylation of EGFR (Tyr1068) in PC-9 cells (Ex19Del) (Homo sapiens, UniProt P00533, DEL746-750); experiment: PC-9 pEGFR AlphaLISA assay; format: cell-based; settings: 4 hours compound incubation, read-out: Ext pEGFR_PC-9 Ex19Del IC50
intracellular phosphorylation of EGFR (Tyr1068) in PC-9 cells (Ex19Del), sequence (P00533 with tags, fused parts or gaps DEL746-750): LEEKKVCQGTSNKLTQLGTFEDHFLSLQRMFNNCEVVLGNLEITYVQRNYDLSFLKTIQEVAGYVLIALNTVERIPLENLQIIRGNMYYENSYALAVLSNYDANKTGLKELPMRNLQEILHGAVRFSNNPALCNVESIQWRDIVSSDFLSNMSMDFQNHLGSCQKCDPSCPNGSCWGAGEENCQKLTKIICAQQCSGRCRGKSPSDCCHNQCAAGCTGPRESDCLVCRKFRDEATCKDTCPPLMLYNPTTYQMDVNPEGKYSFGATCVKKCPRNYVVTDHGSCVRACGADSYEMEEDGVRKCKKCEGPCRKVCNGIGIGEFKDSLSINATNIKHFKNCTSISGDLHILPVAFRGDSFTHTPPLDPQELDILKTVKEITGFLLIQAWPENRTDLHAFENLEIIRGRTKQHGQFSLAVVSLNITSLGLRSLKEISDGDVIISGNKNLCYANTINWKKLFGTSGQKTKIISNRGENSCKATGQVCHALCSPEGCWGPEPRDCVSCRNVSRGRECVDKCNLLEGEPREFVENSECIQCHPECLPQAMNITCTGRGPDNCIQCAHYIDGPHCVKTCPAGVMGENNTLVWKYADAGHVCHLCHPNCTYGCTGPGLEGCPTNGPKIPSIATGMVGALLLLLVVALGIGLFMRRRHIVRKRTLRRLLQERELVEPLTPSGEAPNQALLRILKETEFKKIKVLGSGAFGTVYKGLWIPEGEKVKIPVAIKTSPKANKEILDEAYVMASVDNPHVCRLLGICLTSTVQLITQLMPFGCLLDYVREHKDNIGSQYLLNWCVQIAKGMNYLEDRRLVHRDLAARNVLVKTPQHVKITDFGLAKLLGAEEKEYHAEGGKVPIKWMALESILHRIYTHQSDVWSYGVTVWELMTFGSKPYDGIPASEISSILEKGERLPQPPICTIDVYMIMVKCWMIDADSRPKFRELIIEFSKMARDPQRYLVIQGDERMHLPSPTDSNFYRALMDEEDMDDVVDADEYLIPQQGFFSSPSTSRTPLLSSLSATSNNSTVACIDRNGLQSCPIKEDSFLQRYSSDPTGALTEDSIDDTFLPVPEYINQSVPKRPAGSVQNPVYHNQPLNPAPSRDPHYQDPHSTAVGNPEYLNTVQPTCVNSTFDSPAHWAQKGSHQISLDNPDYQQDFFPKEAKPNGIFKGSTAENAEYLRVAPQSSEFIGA

[3] = biological target: T2, EGFR (d746-750) (Homo sapiens, UniProt P00533, DEL746-750); experiment: Biochemical EGFR inhibition assay (Caliper mobility shift), EGFR (d746-750); settings: read-out: Enz EGFR_Exon19-del746-750 IC50
T2 construct: purchased SignalChem E10-122JG
T2 sequence (P00533 with tags, fused parts or gaps DEL746-750 limits assumed): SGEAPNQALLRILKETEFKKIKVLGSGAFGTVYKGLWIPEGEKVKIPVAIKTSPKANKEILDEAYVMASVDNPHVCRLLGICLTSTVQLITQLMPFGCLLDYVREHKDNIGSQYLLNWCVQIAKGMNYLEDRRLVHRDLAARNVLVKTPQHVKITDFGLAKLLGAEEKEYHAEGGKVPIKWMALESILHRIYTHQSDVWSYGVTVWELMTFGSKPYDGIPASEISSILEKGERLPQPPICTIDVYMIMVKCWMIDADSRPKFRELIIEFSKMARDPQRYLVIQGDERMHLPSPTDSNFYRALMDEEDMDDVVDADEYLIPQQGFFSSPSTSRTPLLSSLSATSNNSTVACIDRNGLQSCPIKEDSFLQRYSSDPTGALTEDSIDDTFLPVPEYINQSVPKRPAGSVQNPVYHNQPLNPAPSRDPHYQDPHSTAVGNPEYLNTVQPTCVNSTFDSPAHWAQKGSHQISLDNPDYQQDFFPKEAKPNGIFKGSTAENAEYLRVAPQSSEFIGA

T1 sequence (P00533 25-1210 L858R): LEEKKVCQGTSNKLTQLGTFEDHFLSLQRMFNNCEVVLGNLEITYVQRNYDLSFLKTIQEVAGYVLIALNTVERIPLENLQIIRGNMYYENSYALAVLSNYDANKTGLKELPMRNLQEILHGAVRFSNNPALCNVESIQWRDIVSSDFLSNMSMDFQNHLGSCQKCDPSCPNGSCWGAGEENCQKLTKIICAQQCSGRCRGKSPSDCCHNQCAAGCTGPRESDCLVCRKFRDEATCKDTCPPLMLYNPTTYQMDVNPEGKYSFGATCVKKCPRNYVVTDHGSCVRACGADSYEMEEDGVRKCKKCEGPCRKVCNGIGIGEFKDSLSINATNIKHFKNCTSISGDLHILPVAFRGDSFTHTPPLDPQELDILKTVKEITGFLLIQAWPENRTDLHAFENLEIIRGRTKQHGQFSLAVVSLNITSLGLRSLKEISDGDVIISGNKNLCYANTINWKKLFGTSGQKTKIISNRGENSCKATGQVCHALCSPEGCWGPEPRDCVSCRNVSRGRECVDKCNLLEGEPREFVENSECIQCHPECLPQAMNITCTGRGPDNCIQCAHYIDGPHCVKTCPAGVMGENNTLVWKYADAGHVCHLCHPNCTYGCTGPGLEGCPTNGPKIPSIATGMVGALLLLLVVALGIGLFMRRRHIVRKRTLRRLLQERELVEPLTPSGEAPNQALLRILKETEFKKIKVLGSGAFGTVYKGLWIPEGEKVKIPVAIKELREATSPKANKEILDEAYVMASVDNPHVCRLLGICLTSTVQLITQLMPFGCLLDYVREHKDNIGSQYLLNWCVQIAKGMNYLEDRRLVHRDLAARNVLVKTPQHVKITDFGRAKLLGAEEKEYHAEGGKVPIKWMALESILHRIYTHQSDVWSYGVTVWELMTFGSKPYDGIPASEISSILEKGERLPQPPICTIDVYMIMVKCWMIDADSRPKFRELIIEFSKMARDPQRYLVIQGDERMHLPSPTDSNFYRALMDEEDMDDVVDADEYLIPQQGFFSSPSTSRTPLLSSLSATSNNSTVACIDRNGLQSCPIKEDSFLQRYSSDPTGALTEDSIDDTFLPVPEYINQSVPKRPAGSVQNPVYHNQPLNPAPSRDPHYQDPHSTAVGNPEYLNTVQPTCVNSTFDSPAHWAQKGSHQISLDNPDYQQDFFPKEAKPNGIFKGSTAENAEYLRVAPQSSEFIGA

SMILES	IC50 [1]	IC50 [2]	IC50 [3]
C[C@@H](Oc1cc(-c2cnn(C)c2)cc2ncnc(Nc3ccc4ncccc4c3F)c12)C1COC1 [Example 46, (R)—N-(5-fluoroquinolin-6-yl)-7-(1-methyl-1H-pyrazol-4-yl)-5-(1-(oxetan-3-yl)ethoxy)quinazolin-4-amine]	< 10 nM	≤ 10 nM	< 10 nM
COc1nn(C)cc1-c1cc(O[C@H](C)CN(C)C)c2c(Nc3ccc4ncccc4c3F)ncnc2c1 [Example 54, (R)-5-((1-(dimethylamino)propan-2-yl)oxy)-N-(5-fluoroquinolin-6-yl)-7-(3-methoxy-1-methyl-1H-pyrazol-4-yl)quinazolin-4-amine]	< 10 nM	≤ 10 nM	< 10 nM
C[C@H](CN(C)C)Oc1cc(-c2cnn(CC(F)F)c2)cc2ncnc(Nc3ccc4ncccc4c3F)c12 [Example 55, (R)-7-(1-(2,2-difluoroethyl)-1H-pyrazol-4-yl)-5-((1-(dimethylamino)propan-2-yl)oxy)-N-(5-fluoroquinolin-6-yl)quinazolin-4-amine]	< 10 nM	≤ 10 nM	< 10 nM
COc1cc(O[C@H](C)C2COC2)c2c(Nc3ccc4ncccc4c3F)ncnc2c1 [Example 56, (R)—N-(5-fluoroquinolin-6-yl)-7-methoxy-5-(1-(oxetan-3-yl)ethoxy)quinazolin-4-amine]	< 10 nM	≤ 10 nM	< 10 nM
COc1cc(O[C@H](C)CN(C)C)c2c(Nc3ccc4ncccc4c3F)ncnc2c1 [Example 57, (R)-5-((1-(dimethylamino)propan-2-yl)oxy)-N-(5-fluoroquinolin-6-yl)-7-methoxyquinazolin-4-amine]	10.1 to 50 nM	10.1 to 50 nM	< 10 nM
CCOc1cc2ncnc(Nc3ccc4ncccc4c3F)c2c(O[C@H](C)CN(C)C)n1 [Example 58, (R)-5-((1-(dimethylamino)propan-2-yl)oxy)-7-ethoxy-N-(5-fluoroquinolin-6-yl)pyrido[4,3-d]pyrimidin-4-amine]	> 50.1 nM	> 50.1 nM	10.1 to 50 nM
C[C@@H](Oc1cc(N2CC3CC(C2)O3)cc2ncnc(Nc3ccc4ncccc4c3F)c12)C1COC1 [Example 59, 7-(6-oxa-3-azabicyclo[3.1.1]heptan-3-yl)-N-(5-fluoroquinolin-6-yl)-5-((R)-1-(oxetan-3-yl)ethoxy)quinazolin-4-amine]	< 10 nM	≤ 10 nM	< 10 nM
C[C@@H](Oc1cc(N2CCOC(C)(C)C2)cc2ncnc(Nc3ccc4ncccc4c3F)c12)C1COC1 [Example 60, (R)-7-(2,2-dimethylmorpholino)-N-(5-fluoroquinolin-6-yl)-5-(1-(oxetan-3-yl)ethoxy)quinazolin-4-amine]	10.1 to 50 nM	10.1 to 50 nM	< 10 nM
C[C@@H](Oc1cc(N2CCOCC2)cc2ncnc(Nc3ccc4ncccc4c3F)c12)C1COC1 [Example 61, (R)—N-(5-fluoroquinolin-6-yl)-7-morpholino-5-(1-(oxetan-3-yl)ethoxy)quinazolin-4-amine]	< 10 nM	≤ 10 nM	< 10 nM
C[C@@H](Oc1cc(N2CC[C@H](C(C)(C)O)C2)cc2ncnc(Nc3ccc4ncccc4c3F)c12)C1COC1 [Example 62, 2—((S)-1-(4-((5-fluoroquinolin-6-yl)amino)-5-((R)-1-(oxetan-3-yl)ethoxy)quinazolin-7-yl)pyrrolidin-3-yl)propan-2-ol]	< 10 nM	≤ 10 nM	< 10 nM
C[C@@H](Oc1cc(N2CC[C@@H](C(C)(C)O)C2)cc2ncnc(Nc3ccc4ncccc4c3F)c12)C1COC1 [Example 63, 2—((R)-1-(4-((5-fluoroquinolin-6-yl)amino)-5-((R)-1-(oxetan-3-yl)ethoxy)quinazolin-7-yl)pyrrolidin-3-yl)propan-2-ol]	< 10 nM	≤ 10 nM	< 10 nM
C[C@@H](Oc1cc(N2CC3(COC3)C2)cc2ncnc(Nc3ccc4ncccc4c3F)c12)C1COC1 [Example 64]	< 10 nM	≤ 10 nM	< 10 nM
C[C@H](CN(C)C)Oc1cc(N2CCOCC2)cc2ncnc(Nc3ccc4ncccc4c3F)c12 [Example 65, (R)-5-((1-(dimethylamino)propan-2-yl)oxy)-N-(5-fluoroquinolin-6-yl)-7-morpholinoquinazolin-4-amine]	10.1 to 50 nM	≤ 10 nM	< 10 nM
C[C@H](CN(C)C)Oc1cc(N2CC3CCC(C2)O3)cc2ncnc(Nc3ccc4ncccc4c3F)c12 [Example 69, 7-(8-oxa-3-azabicyclo[3.2.1]octan-3-yl)-5-(((R)-1-(dimethylamino)propan-2-yl)oxy)-N-(5-fluoroquinolin-6-yl)quinazolin-4-amine]	> 50.1 nM	> 50.1 nM	10.1 to 50 nM
C[C@H](CN(C)C)Oc1cc(N2CC3CC(C2)O3)cc2ncnc(Nc3ccc4ncccc4c3F)c12 [Example 70, 7-(6-oxa-3-azabicyclo[3.1.1]heptan-3-yl)-5-(((R)-1-(dimethylamino)propan-2-yl)oxy)-N-(5-fluoroquinolin-6-yl)quinazolin-4-amine]	10.1 to 50 nM	≤ 10 nM	< 10 nM
C[C@H](CN(C)C)Oc1cc(N2CC3(COC3)C2)cc2ncnc(Nc3ccc4ncccc4c3F)c12 [Example 71, (R)-5-((1-(dimethylamino)propan-2-yl)oxy)-N-(5-fluoroquinolin-6-yl)-7-(2-oxa-6-azaspiro[3.3]heptan-6-yl)quinazolin-4-amine]	< 10 nM	≤ 10 nM	< 10 nM
C[C@H](CN(C)C)Oc1cc(N2CC[C@@H](C(C)(C)O)C2)cc2ncnc(Nc3ccc4ncccc4c3F)c12 [Example 72, 2—((R)-1-(5-(((R)-1-(dimethylamino)propan-2-yl)oxy)-4-((5-fluoroquinolin-6-yl)amino)quinazolin-7-yl)pyrrolidin-3-yl)propan-2-ol]	10.1 to 50 nM	10.1 to 50 nM	< 10 nM
C[C@H](CN(C)C)Oc1cc(N2CC[C@H](C(C)(C)O)C2)cc2ncnc(Nc3ccc4ncccc4c3F)c12 [Example 73, 2—((S)-1-(5-(((R)-1-(dimethylamino)propan-2-yl)oxy)-4-((5-fluoroquinolin-6-yl)amino)quinazolin-7-yl)pyrrolidin-3-yl)propan-2-ol]	< 10 nM	≤ 10 nM	< 10 nM
C[C@H](CN(C)C)Oc1cc(N2CCC3(COC3)C2)cc2ncnc(Nc3ccc4ncccc4c3F)c12 [Example 74, (R)-5-((1-(dimethylamino)propan-2-yl)oxy)-N-(5-fluoroquinolin-6-yl)-7-(2-oxa-6-azaspiro[3.4]octan-6-yl)quinazolin-4-amine]	10.1 to 50 nM	10.1 to 50 nM	< 10 nM

The next lines start with the values.

IC50 [1]	IC50 [2]	IC50 [3]	SMILES
< 10 nM	≤ 10 nM	< 10 nM	COc1cn(C)nc1-c1cc(O[C@H](C)CN(C)C)c2c(Nc3ccc4ncccc4c3F)ncnc2c1 [Example 45, (R)-5-((1-(dimethylamino)propan-2-yl)oxy)-N-(5-fluoroquinolin-6-yl)-7-(4-methoxy-1-methyl-1H-pyrazol-3-yl)quinazolin-4-amine]
< 10 nM	≤ 10 nM	< 10 nM	C[C@@H](Oc1cc(-c2cnn(C(C)(C)CO)c2)cc2ncnc(Nc3ccc4ncccc4c3F)c12)C1COC1 [Example 47, (R)-2-(4-(4-(5-fluoroquinolin-6-ylamino)-5-(1-(oxetan-3-yl)ethoxy)quinazolin-7-yl)-1H-pyrazol-1-yl)-2-methylpropan-1-ol]
< 10 nM	≤ 10 nM	< 10 nM	C[C@@H](Oc1cc(-c2cnn(CC(C)(C)O)c2)cc2ncnc(Nc3ccc4ncccc4c3F)c12)C1COC1 [Example 48, (R)-1-(4-(4-(5-fluoroquinolin-6-ylamino)-5-(1-(oxetan-3-yl)ethoxy)quinazolin-7-yl)-1H-pyrazol-1-yl)-2-methylpropan-2-ol]
< 10 nM	≤ 10 nM	< 10 nM	C[C@H](CN(C)C)Oc1cc(-c2cn[nH]c2)cc2ncnc(Nc3ccc4ncccc4c3F)c12 [Example 49, (R)-5-((1-(dimethylamino)propan-2-yl)oxy)-N-(5-fluoroquinolin-6-yl)-7-(1H-pyrazol-4-yl)quinazolin-4-amine]
< 10 nM	≤ 10 nM	< 10 nM	CN1CCC(Oc2cc(-c3cnn(C)c3)cc3ncnc(Nc4ccc5ncccc5c4F)c23)CC1 [Example 50, N-(5-fluoroquinolin-6-yl)-7-(1-methyl-1H-pyrazol-4-yl)-5-((1-methylpiperidin-4-yl)oxy)quinazolin-4-amine]
< 10 nM	≤ 10 nM	< 10 nM	C[C@@H](Oc1cc(-c2cnn(CCO)c2)cc2ncnc(Nc3ccc4ncccc4c3F)c12)C1COC1 [Example 51, (R)-2-(4-(4-((5-fluoroquinolin-6-yl)amino)-5-(1-(oxetan-3-yl)ethoxy)quinazolin-7-yl)-1H-pyrazol-1-yl)ethan-1-ol]
< 10 nM	≤ 10 nM	< 10 nM	COCCn1cc(-c2cc(O[C@H](C)C3COC3)c3c(Nc4ccc5ncccc5c4F)ncnc3c2)cn1 [Example 52, (R)—N-(5-fluoroquinolin-6-yl)-7-(1-(2-methoxyethyl)-1H-pyrazol-4-yl)-5-(1-(oxetan-3-yl)ethoxy)quinazolin-4-amine]
< 10 nM	≤ 10 nM	< 10 nM	CN1CCC(Oc2cc(-c3cnn(CC(F)F)c3)cc3ncnc(Nc4ccc5ncccc5c4F)c23)CC1 [Example 53, 7-(1-(2,2-difluoroethyl)-1H-pyrazol-4-yl)-N-(5-fluoroquinolin-6-yl)-5-((1-methylpiperidin-4-yl)oxy)quinazolin-4-amine]
